US11434234B2, “Methods and agents for treating disease” (ANGION BIOMEDICA CORP., priority 2014, dated 2022)

Molecular target: T1, human CYP11B2 (Homo sapiens, UniProt P19099)
T1 construct: expressed in transfected cells; host or cells: V79 Chinese hamster cells
T1 sequence (P19099 25-503): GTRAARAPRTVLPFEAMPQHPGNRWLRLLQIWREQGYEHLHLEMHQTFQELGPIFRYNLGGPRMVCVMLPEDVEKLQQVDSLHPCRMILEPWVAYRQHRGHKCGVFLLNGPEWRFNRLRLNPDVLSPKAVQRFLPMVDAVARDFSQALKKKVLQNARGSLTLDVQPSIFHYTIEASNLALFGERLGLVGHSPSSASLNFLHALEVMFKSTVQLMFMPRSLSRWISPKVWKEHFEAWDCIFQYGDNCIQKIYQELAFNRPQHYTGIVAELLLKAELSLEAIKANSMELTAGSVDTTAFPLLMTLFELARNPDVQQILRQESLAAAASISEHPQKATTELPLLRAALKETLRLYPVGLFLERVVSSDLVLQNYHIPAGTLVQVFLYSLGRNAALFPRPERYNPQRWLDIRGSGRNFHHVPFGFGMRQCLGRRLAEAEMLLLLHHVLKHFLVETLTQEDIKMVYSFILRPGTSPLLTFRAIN
Assay: Aldosterone inhibitory activity in V79 cells expressing human CYP11B2
Format: cell-based
Details: V79 Chinese hamster cells stably transfected with human CYP11B2; substrate 11-deoxycorticosterone 100 nM; read-out: IC50, inhibition of the production of aldosterone
Description: For the determination of aldosterone inhibitory activity, tests were carried out using V79 Chinese hamster cells stably transfected with human CYP11B2 or CYP11B1 and using assay protocols as described in Ehmer P B, Bureik M, Bernhardt R, Muller U, Hartmann R W. Development of a test system for inhibitors of human aldosterone synthase (CYP11B2): screening in fission yeast and evaluation of selectivity in V79 cells. J. Steroid Biochem. Mol. Biol. 2002 June; 81(2):173-9. The concentration of the substrate 11-deoxycorticosterone in the assay was 100 nM.

Row | IC50 [nM] | SMILES
1 | < 1000 | CCCC(O)(c1nc2ccc(Br)cc2s1)c1cnccc1OC (stereo not shown) [Example 70, 1-(6-bromobenzo[d]thiazol-2-yl)-1-(4-methoxypyridin-3-yl)butan-1-ol]
2 | < 1000 | CCCC(O)(c1nc2cccc(OC)c2s1)c1cnccc1OCC (stereo not shown) [Example 44, 1-(4-ethoxypyridin-3-yl)-1-(7-methoxybenzo[d]thiazol-2-yl)butan-1-ol]
3 | < 1000 | CCOc1ccncc1C(O)(c1nc2cccc(Br)c2s1)C(C)C (stereo not shown) [Example 1, 1-(7-bromobenzo[d]thiazol-2-yl)-1-(4-ethoxypyridin-3-yl)-2-methylpropan-1-ol]
4 | < 1000 | CCCC(O)(c1nc2cccc(Br)c2s1)c1cnccc1OCC (stereo not shown) [Example 30, 1-(7-bromobenzo[d]thiazol-2-yl)-1-(4-ethoxypyridin-3-yl)butan-1-ol]
5 | < 1000 | CCCC(O)(c1nc2cccc(C(F)(F)F)c2s1)c1cnccc1OCC (stereo not shown) [Example 47, 1-(4-ethoxypyridin-3-yl)-1-(7-(trifluoromethyl)benzo[d]thiazol-2-yl)butan-1-ol]
6 | < 1000 | COc1ccncc1C(O)(c1nc2ccccc2s1)C(C)(C)C (stereo not shown) [Example 31, 1-(benzo[d]thiazol-2-yl)-1-(4-methoxypyridin-3-yl)-2,2-dimethylpropan-1-ol]
7 | < 1000 | CC(C)c1ccncc1C(O)(c1nc2ccc(Br)cc2s1)C(C)C (stereo not shown) [Example 33, 1-(6-bromobenzo[d]thiazol-2-yl)-1-(4-isopropylpyridin-3-yl)-2-methylpropan-1-ol]
8 | < 1000 | COc1ccncc1C(O)c1nc2cccc(Br)c2s1 (stereo not shown) [Example 27, (7-bromobenzo[d]thiazol-2-yl)(4-methoxypyridin-3-yl)methanol]
9 | < 1000 | CCCC(O)(c1nc2cccc(Br)c2s1)c1cnccc1C(C)C (stereo not shown) [Example 38, 1-(7-bromobenzo[d]thiazol-2-yl)-1-(4-isopropylpyridin-3-yl)butan-1-ol]
10 | < 1000 | CCCC(O)(c1nc2ccc(Cl)cc2s1)c1cnccc1OCC (stereo not shown) [Example 39, 1-(6-chlorobenzo[d]thiazol-2-yl)-1-(4-ethoxypyridin-3-yl)butan-1-ol]
11 | < 1000 | CCCC(O)(c1nc2ccc(Br)cc2s1)c1cnccc1C(C)C (stereo not shown) [Example 37, 1-(6-bromobenzo[d]thiazol-2-yl)-1-(4-isopropylpyridin-3-yl)butan-1-ol]
12 | < 1000 | CC(C)c1ccncc1C(O)(c1nc2cccc(Br)c2s1)C(C)C (stereo not shown) [Example 34, 1-(7-bromobenzo[d]thiazol-2-yl)-1-(4-isopropylpyridin-3-yl)-2-methylpropan-1-ol]
13 | < 1000 | COc1ccncc1C(O)(c1nc2cccc(Br)c2s1)C(C)C (stereo not shown) [1-(7-bromobenzo[d]thiazol-2-yl)-1-(4-methoxypyridin-3-yl)-2-methylpropan-1-ol]
14 | < 1000 | CCCC(O)(c1nc2cccc(Cl)c2s1)c1cnccc1OCC (stereo not shown) [Example 42, 1-(7-chlorobenzo[d]thiazol-2-yl)-1-(4-ethoxypyridin-3-yl)butan-1-ol]
15 | < 1000 | CCCC(O)(c1nc2ccc(Br)cc2s1)c1cnccc1OCC (stereo not shown) [Example 29, 1-(6-bromobenzo[d]thiazol-2-yl)-1-(4-ethoxypyridin-3-yl)butan-1-ol]
16 | < 1000 | CCCC(O)(c1nc2cccc(Br)c2s1)c1cnccc1OC (stereo not shown) [Example 24, 1-(7-bromobenzo[d]thiazol-2-yl)-1-(4-methoxypyridin-3-yl)butan-1-ol]
17 | < 1000 | CC(C)Oc1ccncc1C(O)(c1nc2cccc(Br)c2s1)C(C)C (stereo not shown) [Example 36, 1-(7-bromobenzo[d]thiazol-2-yl)-1-(4-isopropoxypyridin-3-yl)-2-methylpropan-1-ol]
18 | < 1000 | CCCC(O)(c1nc2ccc(OC)cc2s1)c1cnccc1OCC (stereo not shown) [Example 48, 1-(4-ethoxypyridin-3-yl)-1-(6-methoxybenzo[d]thiazol-2-yl)butan-1-ol]
19 | < 1000 | CCCC(O)(c1nc2ccc(OC(F)(F)F)c(Br)c2s1)c1cnccc1OCC (stereo not shown) [Example 57, 1-(7-bromo-6-(trifluoromethoxy)benzo[d]thiazol-2-yl)-1-(4-ethoxypyridin-3-yl)butan-1-ol]
20 | < 1000 | CC(C)Oc1ccncc1C(O)(c1nc2ccc(Br)cc2s1)C(C)C (stereo not shown) [Example 35, 1-(6-bromobenzo[d]thiazol-2-yl)-1-(4-isopropoxypyridin-3-yl)-2-methylpropan-1-ol]

Second part, the molecule before the results:

Row | SMILES | IC50 [nM]
21 | CCCC(O)(c1nc2ccc(F)cc2s1)c1cnccc1OCC (stereo not shown) [Example 41, 1-(4-ethoxypyridin-3-yl)-1-(6-fluorobenzo[d]thiazol-2-yl)butan-1-ol] | < 1000
22 | CCCC(O)(c1nc2cc(Cl)c(OCC(F)(F)F)cc2s1)c1cnccc1OCC (stereo not shown) [Example 69, 1-(5-chloro-6-(2,2,2-trifluoroethoxy)benzo[d]thiazol-2-yl)-1-(4-ethoxypyridin-3-yl)butan-1-ol] | < 1000
23 | CCCC(O)(c1nc2cc(Cl)c(OC(F)(F)F)cc2s1)c1cnccc1OCC (stereo not shown) [Example 58, 1-(5-chloro-6-(trifluoromethoxy)benzo[d]thiazol-2-yl)-1-(4-ethoxypyridin-3-yl)butan-1-ol] | < 1000
24 | CCCC(O)(c1nc2ccc(OC(F)(F)F)cc2s1)c1cnccc1OC(C)C (stereo not shown) [Example 49, 1-(4-isopropoxypyridin-3-yl)-1-(6-(trifluoromethoxy)benzo[d]thiazol-2-yl)butan-1-ol] | < 1000
25 | CCCC(O)(c1nc2ccc(C(N)=O)cc2s1)c1cnccc1OCC (stereo not shown) [Example 73, 2-(1-(4-ethoxypyridin-3-yl)-1-hydroxybutyl)benzo[d]thiazole-6-carboxamide] | < 1000
26 | CCCC(O)(c1nc2ccc(C#N)cc2s1)c1cnccc1OCC (stereo not shown) [Example 72, 1-(6-cyanobenzo[d]thiazol-2-yl)-1-(4-ethoxypyridin-3-yl)butan-1-ol] | < 1000
27 | CCCC(O)(c1nc2cc3c(cc2s1)OC(F)(F)O3)c1cnccc1OCC (stereo not shown) [Example 52, 1-(2,2-difluoro-[1,3]dioxolo[4′,5′:4,5]benzo[1,2-d]thiazol-6-yl)-1-(4-ethoxypyridin-3-yl)butan-1-ol] | < 1000
28 | CCCC(O)(c1nc2ccc([N+](=O)[O-])cc2s1)c1cnccc1OC (stereo not shown) [Example 28, 1-(4-methoxypyridin-3-yl)-1-(6-nitrobenzo[d]thiazol-2-yl)butan-1-ol] | < 1000
29 | CCCC(O)(c1cncc(OC)c1)c1nc2ccc(F)cc2s1 (stereo not shown) [Example 20, 1-(6-fluorobenzo[d]thiazol-2-yl)-1-(5-methoxypyridin-3-yl)butan-1-ol] | < 1000
30 | CCCC(O)(c1nc2cc(C)c(OC(F)(F)F)cc2s1)c1cnccc1OCC (stereo not shown) [Example 60, 1-(4-ethoxypyridin-3-yl)-1-(5-methyl-6-(trifluoromethoxy)benzo[d]thiazol-2-yl)butan-1-ol] | < 1000
31 | CCCC(O)(c1nc2cc(Br)c(OC(F)(F)F)cc2s1)c1cnccc1OCC (stereo not shown) [Example 56, 1-(5-bromo-6-(trifluoromethoxy)benzo[d]thiazol-2-yl)-1-(4-ethoxypyridin-3-yl)butan-1-ol] | < 1000
32 | CCCOc1ccncc1C(O)(CCC)c1nc2ccc(OC(F)(F)F)c(Cl)c2s1 (stereo not shown) [Example 64, 1-(7-chloro-6-(trifluoromethoxy)benzo[d]thiazol-2-yl)-1-(4-propoxypyridin-3-yl)butan-1-ol] | < 1000
33 | CCCC(O)(c1nc2ccc(OC(F)(F)F)c(C)c2s1)c1cnccc1OCC (stereo not shown) [Example 61, 1-(4-ethoxypyridin-3-yl)-1-(7-methyl-6-(trifluoromethoxy)benzo[d]thiazol-2-yl)butan-1-ol] | < 1000
34 | CCCC(O)(c1nc2c(F)ccc(F)c2s1)c1cnccc1OCC (stereo not shown) [Example 43, 1-(4,7-difluorobenzo[d]thiazol-2-yl)-1-(4-ethoxypyridin-3-yl)butan-1-ol] | < 1000
35 | CCCC(O)(c1nc2ccc(C(F)(F)F)cc2s1)c1cnccc1OCC (stereo not shown) [Example 45, 1-(4-ethoxypyridin-3-yl)-1-(6-(trifluoromethyl)benzo[d]thiazol-2-yl)butan-1-ol] | < 1000
36 | CCCOc1ccncc1C(O)(CCC)c1nc2cc(Cl)c(OC(F)(F)F)cc2s1 (stereo not shown) [Example 63, 1-(5-chloro-6-(trifluoromethoxy)benzo[d]thiazol-2-yl)-1-(4-propoxypyridin-3-yl)butan-1-ol] | < 1000
37 | CCCC(O)(c1nc2cc(Cl)c(Cl)cc2s1)c1cnccc1OCC (stereo not shown) [Example 50, 1-(5,6-dichlorobenzo[d]thiazol-2-yl)-1-(4-ethoxypyridin-3-yl)butan-1-ol] | < 1000
38 | COc1ccncc1C(O)c1nc2ccc(Br)cc2s1 (stereo not shown) [Example 26, (6-bromobenzo[d]thiazol-2-yl)(4-methoxypyridin-3-yl)methanol] | < 1000
39 | CCCC(O)(c1nc2ccc([N+](=O)[O-])cc2s1)c1cnccc1OCC (stereo not shown) [Example 40, 1-(4-ethoxypyridin-3-yl)-1-(6-nitrobenzo[d]thiazol-2-yl)butan-1-ol] | < 1000
40 | CCCC(O)(c1nc2ccc(OC(F)(F)F)cc2s1)c1cnccc1OCC (stereo not shown) [Example 46, 1-(4-ethoxypyridin-3-yl)-1-(6-(trifluoromethoxy)benzo[d]thiazol-2-yl)butan-1-ol] | < 1000
